# Data reported in patent US9121022B2, “Method for controlling herbicide-resistant plants” (priority 2010, dated 2015).
# Tests used:
# [1] = system: Nicotiana benthamiana phytoene desaturase; assay: topical PDS oligonucleotides/polynucleotides on tobacco, bleaching and chlorophyll (Example 10); assay type: in vivo; conditions: another assay
# Source text: The target gene used was a Nicotiana benthamiana phytoene desaturase (SEQ ID NO:2), shown in FIG. 10; the segment consisting of nucleotides 421-1120 of SEQ ID NO:2 (underlined text in FIG. 10) was used to design a 700-mer dsRNA polynucleotide (“PDS 700-mer”) and the segment consisting of nucleotides 914-1113 of SEQ ID NO:2 (bolded underlined text in FIG. 10) was used to design a 200-mer dsRNA polynucleotide (“PDS 200-mer”). FIG. 11 schematically depicts the location of the sequences of these oligonucleotides and polynucleotides in relation to the […] (SEQ ID NO:2) sequence. Non-plant sequences obtained from corn rootworm (“CRW”), SEQ ID NOs:27, 28, 29, and 30 were used as non-homologous controls. Some of the polynucleotides included a T7 promoter sequence (indicated by lower-case text in Table 3) that is a promoter recognized by a bacteriophage T7 RNA polymerase.
# The following procedure was used for all assays described in this example. Four-week old Nicotiana benthamiana plants were used in all assays. Plants were treated with 0.1% SILWET L-77® brand surfactant solution freshly made with ddH2O. Two fully expanded leaves per plant (one cotyledon, one true leaf) were dipped into the SILWET L-77® brand surfactant solution for a few seconds, and allowed to dry for 15-30 minutes before application of the polynucleotide composition. Final concentration for each oligonucleotide or polynucleotide was 25 microM (in 0.01% SILWET L-77® brand surfactant, 5 mM sodium phosphate buffer, pH 6.8) unless otherwise stated. 20 microliters of the solution was applied to the top surface of each of the two pre-treated leaves to provide a total of 40 microliters (1 nmol oligonucleotide or polynucleotide) for each plant. Leaf bleaching was observed 3 days post treatment.
# FIG. 13 illustrates phenotypes observed at day 12 after treatment in another assay of the effect from twelve combinations of polynucleotides or oligonucleotides (see Table 4). Table 4 also lists observations of visible bleaching of the plants at day 5 after treatment and the results of chlorophyll measurements taken at days 7 and 12 after treatment. Chlorophyll measurements are an indication of suppression of the target gene phytoene desaturase, and measurements were taken at 6 spots on the apical area, focussing on visibly bleached leaves or (in plants without visible bleaching) on leaves in equivalent locations on the plants; lower chlorophyll measurement values indicate suppression of phytoene desaturase.
# [2] = system: endogenous Nicotiana benthamiana Argonaute-1 (AGO1) gene; assay: AGO1 anti-sense polynucleotides with or without PDS anti-sense polynucleotide, systemic bleaching (Example 33); assay type: in vivo; conditions: PDS 25 nanomoles; AGO1 50 nanomoles of each of 14 polynucleotides; applied on separate leaves
# Source text: A second set of experiments was designed to investigate the effects of silencing a component of the endogenous RNAi silencing pathway in a plant. Argonaute (AGO) proteins are components of the RNA-induced silencing complex (RISC) which binds small RNAs in the RNAi silencing process. Suppression of Argonaute would be expected to reduce the observed phenotypic effect caused by an RNAi silencing process. AGO1 anti-sense polynucleotides with the sequences […] (HL510, SEQ ID NO:300), […] (HL511, SEQ ID NO:301), […] (HL512, SEQ ID NO:302), […] (HL513, SEQ ID NO:303), […] (HL514, SEQ ID NO:304), […] (HL515, SEQ ID NO:305), […] (HL516, SEQ ID NO:306), […] (HL517, SEQ ID NO:307), […] (HL518, SEQ ID NO:308), […] (HL519, SEQ ID NO:309), […] (HL520, SEQ ID NO:310), […] (HL521, SEQ ID NO:311), […] (HL522, SEQ ID NO:312), […] (HL523, SEQ ID NO:313) were designed for the endogenous Nicotiana benthamiana Argonaute-1 (AGO1) gene, based on two Nicotiana benthamiana AGO1-2 partial cDNA sequences, • […] […] […] […] […] […] […] […] […] […] […] […] […] […] […] […] […] […] […] […] […] […] […] […] […] […] […] […] […] […] […] […] […] […] […] […] […] […] […] […] […] […] […] GC (SEQ ID NO:314) and • […] […] […] […] […] […] […] […] […] […] […] […] […] […] […] […] […] […] […] […] […] […] […] […] […] […] […] […] […] […] […] […] […] […] […] […] […] […] […] […] […] […] […] […] […] […] […] […] (SEQ ID NO:315).
# Nicotiana benthamiana plants were treated using a procedure similar to that described in Example 12. […]
sequence,measurement,setting,value
"CATCTCCTTTAATTGTACTGC (DNA, backbone not given here) [PDS 21-mer anti-sense ssDNA]",bleaching of apical leaves (FIG. 15),[1],apical leaf bleaching observed
same,systemic bleaching / difference to buffer,[2],displayed systemic bleaching
